Here are results for eleven compounds from PMC6269799, “Synthesis and Trypanocidal Activity of Novel 2,4,5-Triaryl-N-Hydroxylimidazole Derivatives” (Molecules, 2013).

Several values for one entry are separate records, joined by “and”; a condition that tells them apart may be missing. Identical values can stand only once. Like-named read-outs stand apart in the source and are kept apart here.

For data set [1], the system named is bloodstream trypomastigote forms of T. cruzi (Y strain). The data set can be described thus: Activity against bloodstream trypomastigote forms. It counts as cell-based, Trypanosoma cruzi. The settings on record: in vitro, mean ± standard deviation of at least four separate experiments, read-out: IC50 (trypanocidal activity). As for the experimental part: The trypanocide profiles of the new TAI derivatives 3–12 was evaluated in vitro using bloodstream trypomastigote forms of T. cruzi (Y strain) isolated from infected Swiss mice and are summarised in Table 1.
Stock solutions of NAH derivatives were prepared in DMSO. Bloodstream trypomastigote forms of T. cruzi (Y strain) were isolated from infected Swiss mice and re-suspended with Dulbecco’s modified Eagle medium plus 10% foetal calf serum (DMES) to a parasite concentration of 10 × 10^6 cells/mL. This suspension (100 μL) was added to the same volume of each NAH derivative, previously prepared at twice the desired concentrations in DMES. Stock solutions of the NAH derivatives were prepared in dimethylsulfoxide (DMSO), and they were assayed in the range of 0.5 to 2000 μg/mL. The final concentration of DMSO never exceeded 0.5%, thus, it had no deleterious effect on the parasites.

A short description of data set [2]: Cytotoxic effect on murine macrophages (Alamar Blue assay). It counts as cell-based. The settings on record: mouse, J774 macrophage cell line, murine macrophages J774, 21 h after the treatment. Here is the method:
(§1) Cellular viability in the presence and absence of TAI derivatives (4–6) was determined using Alamar Blue assay (Invitrogen). The macrophage cell line J774 was seeded into black clear flat-bottomed 96-well plates in a density of […]. After 1 h of incubation in controlled atmosphere (5% CO2, 37 °C),cells received fresh medium with or without Tween 20 (3%), DMSO (0.5%) and the TAI compounds (1 to 100 μM) in a quadruplicate assay. After 21 h of incubation in the previous conditions, 20 μL of Alamar Blue solution was added to each well and after 3 h, fluorescence was measured using SpectraMax M5/M5^e microplate reader (Molecular Devices; λexc = 555 nm, λem = 585 nm).
On the technique in general: The colour change of resazurin is a common sign of viable cells or microbes.

Data set [3] has as its system macrophage cell line J774. The data set is described as above. The class given is cell-based. Here is the method:
as §1

“2'-(3-Hydroxy-4-methoxy-5-nitrophenyl)-1-methyl-5-nitro-5'-phenyl-1H,3'H-2,4'-biimidazol-3'-ol [Compound 12]”: the IC50 in data set [1] came to 242 ± 7.54 µM.

Consider `O=C(Cn1ccnc1[N+](=O)[O-])NCc1ccccc1` [Bzn, benznidazole, reference compound], for which, in data set [1] (Trypanosoma cruzi), the IC50 is 10.8 ± 0.4 µM.

`Cn1c([N+](=O)[O-])cnc1-c1c(-c2ccccc2)nc(-c2ccccc2)n1O` [Compound 3, 1-Methyl-5-nitro-2',5'-diphenyl-1H,3'H-2,4'-biimidazol-3'-ol] registered a melting point of 217 to 218 °C. Further, in data set [1] (Trypanosoma cruzi), the IC50 stood at 108 ± 5.65 µM.

In data set [2], `Cn1c([N+](=O)[O-])cnc1-c1c(-c2ccccc2)nc(-c2ccc(F)cc2)n1O` [Compound 4, 2'-(4-Fluorophenyl)-1-methyl-5-nitro-5'-phenyl-1H,3'H-2,4'-biimidazol-3'-ol] had a viability at 21 h, 1 µM of 94.2%; a viability at 21 h, 10 µM of 98.9%; a viability at 21 h, 100 µM of 97.6%. Further, the IC50 in data set [1] (Trypanosoma cruzi) worked out at 67.8 ± 8.39 µM.

`Cn1c([N+](=O)[O-])cnc1-c1c(-c2ccccc2)nc(-c2ccc(Cl)cc2)n1O` [Compound 5, 2'-(4-Chlorophenyl)-1-methyl-5-nitro-5'-phenyl-1H,3'H-2,4'-biimidazol-3'-ol] yielded a melting point of 249 to 250 °C. Further, in data set [2], the viability at 21 h, 1 µM was found to be 95.7%; the viability at 21 h, 10 µM amounted to 97.6%; the viability at 21 h, 100 µM is 93.1%. The IC50 in data set [1] (Trypanosoma cruzi) turned out to be 34.6 ± 2.43 µM.

In data set [2], `Cn1c([N+](=O)[O-])cnc1-c1c(-c2ccccc2)nc(-c2ccc(Br)cc2)n1O` [Compound 6, 2'-(4-Bromophenyl)-1-methyl-5-nitro-5'-phenyl-1H,3'H-2,4'-biimidazol-3'-ol] had a viability at 21 h, 1 µM of 97.3%; a viability at 21 h, 10 µM of 97.6%; a viability at 21 h, 100 µM of 78.7%. Besides, the “effect on cell viability (in words)” value in data set [3] (100 μM, murine macrophages) is listed as “weakly reduced cell viability”. Further, the “cytotoxic effects (in words)” value in data set [3] (host cells (murine macrophages) at concentrations near the trypanocidal IC50) is “did not present cytotoxic effects”. Besides, in data set [1] (Trypanosoma cruzi), the IC50 came to 23.9 ± 4.88 µM.

`Cn1c([N+](=O)[O-])cnc1-c1c(-c2ccccc2)nc(-c2ccc([N+](=O)[O-])cc2)n1O` [Compound 7, 1-Methyl-5-nitro-2'-(4-nitrophenyl)-5'-phenyl-1H,3'H-2,4'-biimidazol-3'-ol] showed a melting point of 361 to 362 °C. Further, in data set [1] (Trypanosoma cruzi), the IC50 is 242 ± 37.6 µM.

Regarding `COc1ccc(-c2nc(-c3ccccc3)c(-c3ncc([N+](=O)[O-])n3C)n2O)cc1` [Compound 8, 2'-(4-Methoxyphenyl)-1-methyl-5-nitro-5'-phenyl-1H,3'H-2,4'-biimidazol-3'-ol], the melting point was 218 to 219 °C. Also, in data set [1] (Trypanosoma cruzi), the IC50 is 192 ± 25.3 µM.

As to `Cn1c([N+](=O)[O-])cnc1-c1c(-c2ccccc2)nc(-c2ccc(O)cc2)n1O` [Compound 9, 2'-(4-Hydroxyphenyl)-1-methyl-5-nitro-5'-phenyl-1H,3'H-2,4'-biimidazol-3'-ol], the IC50 in data set [1] (Trypanosoma cruzi) turned out to be 294 ± 28 µM.

In the case of `Cn1c([N+](=O)[O-])cnc1-c1c(-c2ccccc2)nc(-c2ccc(O)c(O)c2)n1O` [Compound 10, 4-(3'-Hydroxy-1-methyl-5-nitro-5'-phenyl-1H,3'H-2,4'-biimidazol-2'-yl)benzene-1,2-diol], in data set [1] (Trypanosoma cruzi), the IC50 was 360 ± 24.7 µM.

Consider `COc1ccc(-c2nc(-c3ccccc3)c(-c3ncc([N+](=O)[O-])n3C)n2O)cc1O` [Compound 11, 2'-(3-Hydroxy-4-methoxyphenyl)-1-methyl-5-nitro-5'-phenyl-1H,3'H-2,4'-biimidazol-3'-ol], for which the melting point is 213 to 214 °C and 213 °C. In addition, in data set [1] (Trypanosoma cruzi), the half-maximal inhibitory concentration (IC50) was 200 ± 2.02 µM.

By IC50 is commonly meant the concentration that gives 50% inhibition. By melting point is commonly meant the temperature of the solid-liquid transition. For orientation: viability means a read-out of living cells in per cent, often relative to untreated cells.
